Test results as given in paper PMC11110727, “Exploiting thiol-functionalized benzosiloxaboroles for achieving diverse substitution patterns – synthesis, characterization and biological evaluation of promising antibacterial agents” (RSC Medicinal Chemistry, 2024).
In brackets after ≈: the same amount, converted by molar mass.

Legend:
E. faecium ATCC 6057 = assay: Antibacterial activity: MIC/MBC determination and disc-diffusion; format: cell-based; details: Enterococcus faecium, ATCC6057, E. faecium ATCC 6057; for MIC: read-out: MIC
Protocol: (§1) Direct antimicrobial activity was determined against the following standard strains: (1) Gram-positive cocci: methicillin-sensitive Staphylococcus aureus ATCC 6538P (MSSA), methicillin-resistant S. aureus subsp. aureus ATCC 43300 (MRSA), S. epidermidis ATCC 12228, Enterococcus faecium ATCC 6057, E. faecalis ATCC 29212, Bacillus subtilis ATCC 6633; (2) Gram-negative bacteria from Enterobacteriales order: Klebsiella pneumoniae ATCC 13883, Escherichia coli ATCC 25922, Enterobacter cloacae DSM 6234, Proteus mirabilis ATCC 12453, Serratia marcescens ATCC 13880; (3) Gram-negative non-fermentative rods: Acinetobacter baumannii ATCC 19606, Pseudomonas aeruginosa ATCC 27853, Stenotrophomonas maltophilia ATCC 12714, S. maltophilia ATCC 13637, Burkholderia cepacia ATCC 25416, Bordetella bronchiseptica ATCC 4617; (4) yeasts: Candida albicans ATCC 90028, C. krusei ATCC 6258, C. parapsilosis ATCC 22019, C. tropicalis (Castellani) Berkhout ATCC 750, C. tropicalis IBA 171, C. guilliermondii IBA 155, and Saccharomyces cerevisiae ATCC 9763. Moreover, 5 clinical strains of methicillin-resistant S. aureus were also included: NMI 664 K, NMI 1576 K, NMI 1712 K, NMI 1991 K, and NMI 2541 K. All strains were stored at −80 °C. Prior to testing, each bacterial strain was subcultured twice on tryptic soy agar TSA (bioMerieux) medium and yeast strains on Sabouraud dextrose agar (bioMerieux) for 24–48 h at 30 °C to ensure viability. The antimicrobial activity was evaluated as previously described[26] by the disc-diffusion method and the MIC determination assays according to the EUCAST (ref. [71] and [72]) and CLSI (ref. [53] and [73]) recommendations. Assessment of bactericidal (MBC) and fungicidal (MFC) activities was performed according to the CLSI recommendations.[54,74] The following reference agents were used: fluconazole (in the case of fungi), linezolid (for Gram-positive bacteria), and nitrofurantoin (for Gram-negative rods). The new benzosiloxaboroles were dissolved in DMSO (Sigma).

[1] = tested on: S. aureus ATCC 43300 MRSA; assay: as above; format: cell-based; details: Staphylococcus aureus, S. aureus ATCC 43300 MRSA; for MBC: read-out: MBC (first MBC where Eagle effect); for MIC: read-out: MIC
Protocol: as §1

E. coli ATCC 25922 = assay: Antibacterial activity: MIC/MBC, MIC with PAβN, disc-diffusion; format: cell-based, Escherichia coli; details: E. coli ATCC 25922; for MIC: Escherichia coli, ATCC25922, read-out: MIC
Protocol: as §1, with “The following reference agents were used: fluconazole (in the case of fungi), linezolid (for Gram-positive bacteria), and nitrofurantoin (for Gram-negative rods).” left out
(§2) Considering that the MDR efflux pumps often contribute to Gram-negative rod resistance, the MIC values of studied agents, with or without the pump inhibitor, PAβN (20 μg mL^−1) (Sigma), were determined.[75] The MIC was determined using Mueller–Hinton II broth medium (MHB) (Becton Dickinson) by the broth microdilution method, according to the CLSI guideliness.[53] To minimize the influence of PAβN on the destabilization of bacterial cell covers, the tests were conducted in the presence of 1 mM MgSO4 (Sigma).[76] At least a 4-fold reduction in the MIC value after the addition of PAβN was considered significant.[56,77]

E. cloacae DSM 6234 = assay: as above; format: cell-based, Enterobacter cloacae; details: E. cloacae DSM 6234; for MIC: Enterobacter cloacae, DSM6234, read-out: MIC
Protocol: as §1, with “The following reference agents were used: fluconazole (in the case of fungi), linezolid (for Gram-positive bacteria), and nitrofurantoin (for Gram-negative rods).” left out
as §2

[2] = tested on: S. maltophilia ATCC 12714; assay: as above; format: cell-based, Stenotrophomonas maltophilia; details: S. maltophilia ATCC 12714; for MIC: Stenotrophomonas maltophilia, ATCC12714, read-out: MIC
Protocol: as §1, with “The following reference agents were used: fluconazole (in the case of fungi), linezolid (for Gram-positive bacteria), and nitrofurantoin (for Gram-negative rods).” left out
as §2

[3] = tested on: S. maltophilia ATCC 13637; assay: as above; format: cell-based, Stenotrophomonas maltophilia; details: S. maltophilia ATCC 13637; for MIC: Stenotrophomonas maltophilia, ATCC13637, read-out: MIC
Protocol: as §1, with “The following reference agents were used: fluconazole (in the case of fungi), linezolid (for Gram-positive bacteria), and nitrofurantoin (for Gram-negative rods).” left out
as §2

B. cepacia ATCC 25416 = assay: Antibacterial activity: MIC/MBC, disc-diffusion; format: cell-based, Burkholderia cepacia; details: Burkholderia cepacia, ATCC25416; B. cepacia ATCC 25416; read-out: MIC
Protocol: as §1, with “The following reference agents were used: fluconazole (in the case of fungi), linezolid (for Gram-positive bacteria), and nitrofurantoin (for Gram-negative rods).” left out
as §2

[4] = tested on: B. bronchiseptica ATCC 4617; assay: Antibacterial activity: MIC/MBC, disc-diffusion; format: cell-based, Bordetella bronchiseptica; details: Bordetella bronchiseptica, ATCC4617; B. bronchiseptica ATCC 4617; read-out: MIC
Protocol: as §1, with “The following reference agents were used: fluconazole (in the case of fungi), linezolid (for Gram-positive bacteria), and nitrofurantoin (for Gram-negative rods).” left out
as §2

C. krusei ATCC 6258 = assay: Antifungal activity: MIC/MFC, disc-diffusion; format: cell-based; details: for diameter of inhibition zone: C. krusei ATCC 6258, (-) = zone not observed, paper discs 9 mm; for MIC: Pichia kudriavzevii, ATCC6258, read-out: MIC
Protocol: as §1, with “The following reference agents were used: fluconazole (in the case of fungi), linezolid (for Gram-positive bacteria), and nitrofurantoin (for Gram-negative rods).” left out

S. cerevisiae ATCC 9763 = assay: Antifungal activity: MIC/MFC, disc-diffusion; format: cell-based, Saccharomyces cerevisiae; details: for diameter of inhibition zone: (-) = zone not observed, paper discs 9 mm; for MIC: read-out: MIC
Protocol: as §1

[5] = Saccharomyces cerevisiae, ATCC9763
[6] = PAβN 20 μg mL^−1, MHB + 1 mM MgSO4

Row | Structure (SMILES) | MBC (E. faecium ATCC 6057) [µg/mL] | MIC (E. faecium ATCC 6057) [µg/mL] | MBC [1] [µg/mL] | MIC [1] [µg/mL] | MIC (E. coli ATCC 25922) [µg/mL] | MIC (E. cloacae DSM 6234) [µg/mL] | MIC [2] [µg/mL] | MIC [3] [µg/mL] | MIC (B. cepacia ATCC 25416) [µg/mL] | MIC [4] [µg/mL] | diameter of inhibition zone (C. krusei ATCC 6258) [mm] | MIC (C. krusei ATCC 6258) [µg/mL] | diameter of inhibition zone (S. cerevisiae ATCC 9763; S. cerevisiae ATCC 9763) [mm] | MIC (S. cerevisiae ATCC 9763; [5]) [µg/mL] | diameter of inhibition zone (E. coli ATCC 25922; (-) = zone not observed, paper discs 9 mm) [mm] | -fold reduction of MIC in the presence of PAβN (E. coli ATCC 25922; [6]) | -fold reduction of MIC in the presence of PAβN (E. cloacae DSM 6234; [6]) | -fold reduction of MIC in the presence of PAβN [2, 6] | -fold reduction of MIC in the presence of PAβN [3, 6] | MFC (S. cerevisiae ATCC 9763; Saccharomyces cerevisiae, ATCC9763, S. cerevisiae ATCC 9763) [µg/mL]
1 | C[Si]1(C)OB(O)c2cc(F)c(S)c(F)c21 [Compound 1e, 5,7-Difluoro-6-mercapto-1,1-dimethylbenzo[c][1,2,5]oxasilaborol-3(1H)-ol] | 400 (≈ 1630 µM) | 12.5 (≈ 50.8 µM) | 25 (≈ 102 µM) | 12.5 (≈ 50.8 µM) | > 400 | > 400 | > 400 | > 400 | > 400 | > 400 | 13 | 400 (≈ 1630 µM) | 17 | 200 (≈ 813 µM) | – | – | – | – | – | –
2 | C[Si]1(C)OB(O)c2ccc(S)c(F)c21 [Compound 2e, 7-Fluoro-6-mercapto-1,1-dimethylbenzo[c][1,2,5]oxasilaborol-3(1H)-ol] | – | 12.5 (≈ 54.8 µM) | 25 (≈ 110 µM) | 12.5 (≈ 54.8 µM) | > 100 | > 100 | > 100 | > 100 | > 100 | > 100 | – | > 100 | – | > 100 | – | – | – | – | – | –
3 | CC(=O)CCSc1c(F)cc2c(c1F)[Si](C)(C)OB2O [Compound 3, 4-((5,7-Difluoro-3-hydroxy-1,1-dimethyl-1,3-dihydrobenzo[c][1,2,5]oxasilaborol-6-yl)thio)butan-2-one] | 200 (≈ 632 µM) | 12.5 (≈ 39.5 µM) | 200 (≈ 632 µM) | 50 (≈ 158 µM) | > 400 | > 400 | 200 (≈ 632 µM) | 400 (≈ 1260 µM) | > 400 | 50 (≈ 158 µM) | – | 200 (≈ 632 µM) | – | 400 (≈ 1260 µM) | – | – | – | – | – | –
4 | COC(=O)CCSc1ccc2c(c1F)[Si](C)(C)OB2O [Compound 4, Methyl 3-((7-fluoro-3-hydroxy-1,1-dimethyl-1,3-dihydrobenzo[c][1,2,5]oxasilaborol-6-yl)thio)propanoate] | – | 100 (≈ 318 µM) | – | 12.5 (≈ 39.8 µM) | 400 (≈ 1270 µM) | > 400 | > 400 | > 400 | > 400 | > 400 | 12 | 200 (≈ 636 µM) | 32 | 12.5 (≈ 39.8 µM) | 15 | 8 -fold | 8 -fold | 2 -fold | 2 -fold | 400 (≈ 1270 µM)
